Where two headings read alike, the source gives them in different places. Peptide text beside a SMILES is read from it. * marks the point of attachment. C16 diacid = O=C(O)CCCCCCCCCCCCCCC(=O)*
Legend:
human GLP‐2R [1] = biological target: T1, human GLP‐2R (Homo sapiens, UniProt O95838); test: cAMP accumulation, inhibition of GLP‐2‐induced activation; conditions: for IC50: SEM; for cAMP inhibition Log IC50 ± SEM / cAMP inhibition IC50: COS‐7 cells, human GLP‐2R, n = 3 in duplicate; for cAMP inhibition Log IC50 ± SEM: 10 min preincubation with antagonist, then GLP‐2 for 20 min, mean ± SEM; for cAMP inhibition IC50: inhibition of GLP‐2‐induced cAMP
T1 sequence (O95838 1-553): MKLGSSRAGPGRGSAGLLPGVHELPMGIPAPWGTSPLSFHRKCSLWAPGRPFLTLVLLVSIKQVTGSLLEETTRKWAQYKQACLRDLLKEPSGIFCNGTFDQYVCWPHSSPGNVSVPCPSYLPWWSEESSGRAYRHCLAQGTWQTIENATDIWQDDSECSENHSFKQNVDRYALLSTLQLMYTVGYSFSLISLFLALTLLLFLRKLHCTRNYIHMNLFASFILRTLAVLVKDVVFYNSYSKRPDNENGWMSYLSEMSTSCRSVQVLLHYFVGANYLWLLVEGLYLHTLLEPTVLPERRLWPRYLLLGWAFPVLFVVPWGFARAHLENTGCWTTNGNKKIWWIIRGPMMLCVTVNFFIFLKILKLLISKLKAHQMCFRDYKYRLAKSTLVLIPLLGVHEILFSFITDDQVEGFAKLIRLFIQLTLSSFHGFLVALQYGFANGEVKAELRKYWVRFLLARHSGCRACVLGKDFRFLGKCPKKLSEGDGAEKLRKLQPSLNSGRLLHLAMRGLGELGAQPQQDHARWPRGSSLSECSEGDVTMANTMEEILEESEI

human GLP‐2R [2] = biological target: T1, human GLP‐2R; test: cAMP accumulation, agonism (HitHunter cAMP assay); conditions: for Emax: COS-7, read-out: cAMP activation Emax ± SEM; for cAMP activation Log EC50 ± SEM / cAMP activation EC50: COS‐7 cells, human GLP‐2R, 30 min at 37°C, n = 3 in duplicate; for cAMP activation Log EC50 ± SEM: mean ± SEM
human GLP‐2R [3] = biological target: T1, human GLP‐2R; test: cell-based; conditions: SEM
human GLP‐1R = human GLP‐1R (Homo sapiens, UniProt P43220); test: cAMP accumulation, inhibition of GLP‐1‐mediated response (selectivity); conditions: COS-7, read-out: Inhibition of GLP‐1‐mediated cAMP response at the human GLP‐1R
human GLP‐1R, sequence (P43220 24-463): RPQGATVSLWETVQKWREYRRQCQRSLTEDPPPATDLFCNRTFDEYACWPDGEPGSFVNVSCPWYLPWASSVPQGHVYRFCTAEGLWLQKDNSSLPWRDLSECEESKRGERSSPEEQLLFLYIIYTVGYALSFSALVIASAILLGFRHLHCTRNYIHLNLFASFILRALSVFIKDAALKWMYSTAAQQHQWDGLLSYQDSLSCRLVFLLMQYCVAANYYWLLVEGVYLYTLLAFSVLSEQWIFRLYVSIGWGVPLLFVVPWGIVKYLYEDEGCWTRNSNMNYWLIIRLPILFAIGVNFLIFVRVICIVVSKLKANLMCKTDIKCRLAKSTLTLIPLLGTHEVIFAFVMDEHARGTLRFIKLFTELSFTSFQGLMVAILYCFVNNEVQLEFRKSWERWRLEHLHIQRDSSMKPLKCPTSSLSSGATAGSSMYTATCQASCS

Row | SMILES | IC50 (human GLP‐2R [1]) [nM] | Emax (human GLP‐2R [2]; SEM) [%] | EC50 (human GLP‐2R [2]; SEM) [nM] | IC50 (human GLP‐2R [3]) [nM] | cAMP inhibition Log IC50 ± SEM (human GLP‐2R [1]) | cAMP inhibition IC50 (human GLP‐2R [1]) | cAMP activation Log EC50 ± SEM (human GLP‐2R [2]) | cAMP activation EC50 (human GLP‐2R [2]) | EC50 (human GLP‐2R [2]) [nM] | inhibition at 1 µM (human GLP‐1R) [%]
1 | CC[C@H](C)[C@H](NC(=O)[C@H](Cc1ccccc1)NC(=O)[C@H](CC(=O)O)NC(=O)[C@H](CCCNC(=N)N)NC(=O)[C@H](C)NC(=O)[C@H](C)NC(=O)[C@H](CC(C)C)NC(=O)[C@H](CC(N)=O)NC(=O)[C@H](CC(=O)O)NC(=O)[C@H](CC(C)C)NC(=O)[C@@H](NC(=O)[C@@H](NC(=O)[C@H](CC(N)=O)NC(=O)[C@H](CCSC)NC(=O)[C@H](CCC(=O)O)NC(=O)[C@H](CC(=O)O)NC(=O)[C@H](CO)NC(=O)[C@@H](N)Cc1ccccc1)[C@@H](C)O)[C@@H](C)CC)C(=O)N[C@@H](CC(N)=O)C(=O)N[C@@H](Cc1c[nH]c2ccccc12)C(=O)N[C@@H](CC(C)C)C(=O)N[C@H](C(=O)N[C@@H](CCC(N)=O)C(=O)N[C@H](C(=O)N[C@@H](CCCCN)C(=O)N[C@H](C(=O)N[C@H](C(=O)N[C@@H](CC(=O)O)C(=O)O)[C@@H](C)O)[C@@H](C)CC)[C@@H](C)O)[C@@H](C)CC [GLP‐2(6‐33)] (H-FSDEMNTILDNLAARDFINWLIQTKITD-OH) | 501 | 46 ± 5.1 | 39.8 | 31.6 |  |  |  |  |  | 
2 | CC[C@H](C)[C@H](NC(=O)[C@H](Cc1ccccc1)NC(=O)[C@H](CC(=O)O)NC(=O)[C@H](CCCNC(=N)N)NC(=O)[C@H](C)NC(=O)[C@H](C)NC(=O)[C@H](CC(C)C)NC(=O)[C@H](CC(N)=O)NC(=O)[C@H](CC(=O)O)NC(=O)[C@H](CC(C)C)NC(=O)[C@@H](NC(=O)[C@@H](NC(=O)[C@H](CC(N)=O)NC(=O)[C@@H](N)CCSC)[C@@H](C)O)[C@@H](C)CC)C(=O)N[C@@H](CC(N)=O)C(=O)N[C@@H](Cc1c[nH]c2ccccc12)C(=O)N[C@@H](CC(C)C)C(=O)N[C@H](C(=O)N[C@@H](CCC(N)=O)C(=O)N[C@H](C(=O)N[C@@H](CCCCN)C(=O)N[C@H](C(=O)N[C@H](C(=O)N[C@@H](CC(=O)O)C(=O)O)[C@@H](C)O)[C@@H](C)CC)[C@@H](C)O)[C@@H](C)CC [GLP‐2(10‐33)] (H-MNTILDNLAARDFINWLIQTKITD-OH) | 407 |  |  | 126 |  |  | No activation | No activation |  | 
3 | CC[C@H](C)[C@H](NC(=O)[C@H](Cc1ccccc1)NC(=O)[C@H](CC(=O)O)NC(=O)[C@H](CCCNC(=N)N)NC(=O)[C@H](C)NC(=O)[C@H](C)NC(=O)[C@H](CC(C)C)NC(=O)[C@H](CC(N)=O)NC(=O)[C@H](CC(=O)O)NC(=O)[C@H](CC(C)C)NC(=O)[C@@H](NC(=O)[C@@H](NC(=O)[C@H](CC(N)=O)NC(=O)[C@H](CCSC)NC(=O)[C@H](CCC(=O)O)NC(=O)[C@H](CC(=O)O)NC(=O)[C@H](CO)NC(=O)[C@H](Cc1ccccc1)NC(=O)[C@@H](N)CO)[C@@H](C)O)[C@@H](C)CC)C(=O)N[C@@H](CC(N)=O)C(=O)N[C@@H](Cc1c[nH]c2ccccc12)C(=O)N[C@@H](CC(C)C)C(=O)N[C@H](C(=O)N[C@@H](CCC(N)=O)C(=O)N[C@H](C(=O)N[C@@H](CCCCN)C(=O)N[C@H](C(=O)N[C@H](C(=O)N[C@@H](CC(=O)O)C(=O)O)[C@@H](C)O)[C@@H](C)CC)[C@@H](C)O)[C@@H](C)CC [GLP‐2(5‐33)] (H-SFSDEMNTILDNLAARDFINWLIQTKITD-OH) | 200 | 40 ± 4.1 | 25.1 | 12.6 |  |  |  |  |  | 
4 | CC[C@H](C)[C@H](NC(=O)[C@H](Cc1ccccc1)NC(=O)[C@H](CC(=O)O)NC(=O)[C@H](CCCNC(=N)N)NC(=O)[C@H](C)NC(=O)[C@H](C)NC(=O)[C@H](CC(C)C)NC(=O)[C@H](CC(N)=O)NC(=O)[C@H](CC(=O)O)NC(=O)[C@H](CC(C)C)NC(=O)[C@@H](NC(=O)[C@@H](NC(=O)[C@H](CC(N)=O)NC(=O)[C@H](CCSC)NC(=O)[C@H](CCC(=O)O)NC(=O)[C@H](CC(=O)O)NC(=O)[C@@H](N)CO)[C@@H](C)O)[C@@H](C)CC)C(=O)N[C@@H](CC(N)=O)C(=O)N[C@@H](Cc1c[nH]c2ccccc12)C(=O)N[C@@H](CC(C)C)C(=O)N[C@H](C(=O)N[C@@H](CCC(N)=O)C(=O)N[C@H](C(=O)N[C@@H](CCCCN)C(=O)N[C@H](C(=O)N[C@H](C(=O)N[C@@H](CC(=O)O)C(=O)O)[C@@H](C)O)[C@@H](C)CC)[C@@H](C)O)[C@@H](C)CC [GLP‐2(7‐33)] (H-SDEMNTILDNLAARDFINWLIQTKITD-OH) |  | 27 ± 3.8 |  | 20 | No inhibition | No inhibition |  |  | 126 | 
5 | CC[C@H](C)[C@H](NC(=O)[C@H](Cc1ccccc1)NC(=O)[C@H](CC(=O)O)NC(=O)[C@H](CCCNC(=N)N)NC(=O)[C@H](C)NC(=O)[C@H](C)NC(=O)[C@H](CC(C)C)NC(=O)[C@H](CCCCNC(=O)CCCCCCCCCCCCCCC(=O)O)NC(=O)[C@H](CC(=O)O)NC(=O)[C@H](CC(C)C)NC(=O)[C@@H](NC(=O)[C@@H](NC(=O)[C@H](CC(N)=O)NC(=O)[C@H](CCSC)NC(=O)[C@H](CCC(=O)O)NC(=O)[C@H](CC(=O)O)NC(=O)[C@H](CO)NC(=O)[C@H](Cc1ccccc1)NC(=O)[C@H](CO)NC(=O)CNC(=O)[C@@H](N)CC(=O)O)[C@@H](C)O)[C@@H](C)CC)C(=O)N[C@@H](CC(N)=O)C(=O)N[C@@H](Cc1c[nH]c2ccccc12)C(=O)N[C@@H](CC(C)C)C(=O)N[C@H](C(=O)N[C@@H](CCC(N)=O)C(=O)N[C@H](C(=O)N[C@@H](CCCCN)C(=O)N[C@H](C(=O)N[C@H](C(=O)N[C@@H](CC(=O)O)C(=O)O)[C@@H](C)O)[C@@H](C)CC)[C@@H](C)O)[C@@H](C)CC [GLP‐2(3‐33)[N16K](C16‐diacid/16)] (H-DGSFSDEMNTILDK(C16 diacid)LAARDFINWLIQTKITD-OH) |  |  |  |  |  |  |  |  |  | 72
6 | CC[C@H](C)[C@H](NC(=O)[C@H](Cc1ccccc1)NC(=O)[C@H](CC(=O)O)NC(=O)[C@H](CCCNC(=N)N)NC(=O)[C@H](C)NC(=O)[C@H](C)NC(=O)[C@H](CC(C)C)NC(=O)[C@H](CC(N)=O)NC(=O)[C@H](CC(=O)O)NC(=O)[C@H](CC(C)C)NC(=O)[C@@H](NC(=O)[C@@H](NC(=O)[C@@H](N)CC(N)=O)[C@@H](C)O)[C@@H](C)CC)C(=O)N[C@@H](CC(N)=O)C(=O)N[C@@H](Cc1c[nH]c2ccccc12)C(=O)N[C@@H](CC(C)C)C(=O)N[C@H](C(=O)N[C@@H](CCC(N)=O)C(=O)N[C@H](C(=O)N[C@@H](CCCCN)C(=O)N[C@H](C(=O)N[C@H](C(=O)N[C@@H](CC(=O)O)C(=O)O)[C@@H](C)O)[C@@H](C)CC)[C@@H](C)O)[C@@H](C)CC [GLP‐2(11‐33)] (H-NTILDNLAARDFINWLIQTKITD-OH) |  |  |  | 794 | No inhibition | No inhibition | No activation | No activation |  | 

Further compounds by falling IC50 (human GLP‐2R [3]), results first:

Row | IC50 (human GLP‐2R [1]) [nM] | Emax (human GLP‐2R [2]; SEM) [%] | EC50 (human GLP‐2R [2]; SEM) [nM] | IC50 (human GLP‐2R [3]) [nM] | cAMP inhibition Log IC50 ± SEM (human GLP‐2R [1]) | cAMP inhibition IC50 (human GLP‐2R [1]) | cAMP activation Log EC50 ± SEM (human GLP‐2R [2]) | cAMP activation EC50 (human GLP‐2R [2]) | EC50 (human GLP‐2R [2]) [nM] | inhibition at 1 µM (human GLP‐1R) [%] | SMILES
7 |  | 19 ± 3 | 63.1 | 79.4 | No inhibition | No inhibition |  |  |  |  | CC[C@H](C)[C@H](NC(=O)[C@H](Cc1ccccc1)NC(=O)[C@H](CC(=O)O)NC(=O)[C@H](CCCNC(=N)N)NC(=O)[C@H](C)NC(=O)[C@H](C)NC(=O)[C@H](CC(C)C)NC(=O)[C@H](CC(N)=O)NC(=O)[C@H](CC(=O)O)NC(=O)[C@H](CC(C)C)NC(=O)[C@@H](NC(=O)[C@@H](NC(=O)[C@H](CC(N)=O)NC(=O)[C@H](CCSC)NC(=O)[C@H](CCC(=O)O)NC(=O)[C@@H](N)CC(=O)O)[C@@H](C)O)[C@@H](C)CC)C(=O)N[C@@H](CC(N)=O)C(=O)N[C@@H](Cc1c[nH]c2ccccc12)C(=O)N[C@@H](CC(C)C)C(=O)N[C@H](C(=O)N[C@@H](CCC(N)=O)C(=O)N[C@H](C(=O)N[C@@H](CCCCN)C(=O)N[C@H](C(=O)N[C@H](C(=O)N[C@@H](CC(=O)O)C(=O)O)[C@@H](C)O)[C@@H](C)CC)[C@@H](C)O)[C@@H](C)CC [GLP‐2(8‐33)] (H-DEMNTILDNLAARDFINWLIQTKITD-OH)
8 |  | 65 ± 3.6 | 200 | 79.4 | No inhibition | No inhibition |  |  |  |  | CC[C@H](C)[C@H](NC(=O)[C@H](Cc1ccccc1)NC(=O)[C@H](CC(=O)O)NC(=O)[C@H](CCCNC(=N)N)NC(=O)[C@H](C)NC(=O)[C@H](C)NC(=O)[C@H](CC(C)C)NC(=O)[C@H](CC(N)=O)NC(=O)[C@H](CC(=O)O)NC(=O)[C@H](CC(C)C)NC(=O)[C@@H](NC(=O)[C@@H](NC(=O)[C@H](CC(N)=O)NC(=O)[C@H](CCSC)NC(=O)[C@@H](N)CCC(=O)O)[C@@H](C)O)[C@@H](C)CC)C(=O)N[C@@H](CC(N)=O)C(=O)N[C@@H](Cc1c[nH]c2ccccc12)C(=O)N[C@@H](CC(C)C)C(=O)N[C@H](C(=O)N[C@@H](CCC(N)=O)C(=O)N[C@H](C(=O)N[C@@H](CCCCN)C(=O)N[C@H](C(=O)N[C@H](C(=O)N[C@@H](CC(=O)O)C(=O)O)[C@@H](C)O)[C@@H](C)CC)[C@@H](C)O)[C@@H](C)CC [GLP‐2(9‐33)] (H-EMNTILDNLAARDFINWLIQTKITD-OH)

Source: paper PMC9541843, “N‐terminal alterations turn the gut hormone GLP‐2 into an antagonist with gradual loss of GLP‐2 receptor selectivity towards more GLP‐1 receptor interaction” (British Journal of Pharmacology, 2022)
